According to US10597388B2, “Pyridazinone herbicides” (FMC CORPORATION, priority 2014, dated 2020):

Columns and labels:
Type in all cases: in vivo
[1] = system: wheat (Triticum aestivum); experiment: Test A greenhouse herbicide test, pre- and postemergence; details: Postemergence; for Plant response rating, Wheat: 125 g ai/ha, 0 to 100 scale where 0 is no effect and 100 is complete control; for Wheat plant response rating: 500 g ai/ha, 0 to 100 scale, 0 is no effect, 100 is complete control
Method in brief: (§1)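 Seeds sown in loam–sand blend got a preemergence directed soil spray of compound in non-phytotoxic solvent with surfactant. Postemergence treatment was given at 2–10 cm, one- to two-leaf stage. After ~10 d in greenhouse, injury was rated visually vs untreated controls, 0 (no effect) to 100 (complete control).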

[2] = system: pigweed (Amaranthus retroflexus); experiment: as above
Method in brief: as §1

[3] = system: ragweed (common ragweed, Ambrosia elatior); experiment: as above
Method in brief: as §1

[4] = system: barnyardgrass (Echinochloa crus-galli); experiment: as above
Method in brief: as §1

[5] = system: corn (Zea mays); experiment: as above; details: Postemergence; for Plant response rating, Corn: 125 g ai/ha, visual rating after approx. 10 d, 0 to 100 scale (0 no effect, 100 complete control); for Corn plant response rating: 500 g ai/ha, 0 to 100 scale, 0 is no effect, 100 is complete control
Method in brief: as §1

[6] = system: kochia (Kochia scoparia); experiment: as above
Method in brief: as §1

[7] = system: crabgrass, large (large crabgrass, Digitaria sanguinalis); experiment: Test C greenhouse herbicide test, pre- and postemergence
Method in brief: (§2)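 Preemergence: seeds sown in a loam soil–sand blend and sprayed with test chemicals in a non-phytotoxic solvent mixture containing surfactant. Postemergence: plants grown in peat-based medium and treated at 2 to 18 cm (1- to 4-leaf stage). After 13 to 15 d in a greenhouse, injury was visually rated 0–100 against controls.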

[8] = system: oilseed rape (Brassica napus); experiment: as above
Method in brief: as §2

[9] = system: oat, wild (wild oat, Avena fatua); experiment: Test C greenhouse herbicide test, postemergence
Method in brief: (§3)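 Seedlings are raised in pots of peat moss–vermiculite medium with starter nutrients, then receive postemergence test chemical at the 1- to 4-leaf stage. They are kept in the greenhouse 13 to 15 d and scored visually versus controls, 0 meaning no effect and 100 complete control.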

[10] = system: kochia (Kochia scoparia); experiment: Test C greenhouse herbicide test, postemergence
Method in brief: as §3

[11] = system: galium (catchweed bedstraw, Galium aparine); experiment: Test A greenhouse herbicide test, postemergence; details: for Plant response rating, Galium: 125 g ai/ha, visual rating after approx. 10 d, 0 to 100 scale (0 no effect, 100 complete control); for Galium plant response rating: 500 g ai/ha, 0 to 100 scale, 0 is no effect, 100 is complete control
Method in brief: (§4)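 Greenhouse postemergence test: formulated chemicals sprayed on one- to two-leaf plants (2 to 10 cm), grown in loam soil blended with sand. Injury assessed visually about 10 d later against untreated controls, scored 0 (no effect) to 100 (complete control).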

[12] = system: blackgrass (Alopecurus myosuroides); experiment: Test A greenhouse herbicide test, postemergence; details: for Plant response rating, Blackgrass: 125 g ai/ha, visual rating after approx. 10 d, 0 to 100 scale (0 no effect, 100 complete control); for Blackgrass plant response rating: 500 g ai/ha, 0 to 100 scale, 0 is no effect, 100 is complete control
Method in brief: as §4

[13] = Postemergence, 125 g ai/ha, visual rating after approx. 10 d, 0 to 100 scale (0 no effect, 100 complete control)
[14] = Postemergence, 500 g ai/ha, 0 to 100 scale, 0 is no effect, 100 is complete control
[15] = Preemergence, 125 g ai/ha, 0 to 100 scale where 0 is no effect and 100 is complete control
[16] = Preemergence, 500 g ai/ha, 0 to 100 scale, 0 no effect, 100 complete control
[17] = Postemergence, 31 g ai/ha, 0 to 100 scale (0 no effect, 100 complete control)
[18] = Postemergence, 125 g ai/ha, scale 0 to 100, 0 is no effect, 100 is complete control
[19] = Postemergence, 250 g ai/ha, scale 0 to 100, 0 no effect, 100 complete control, 13 to 15 d
[20] = Preemergence, 31 g ai/ha, scale 0 to 100, 0 is no effect, 100 is complete control
[21] = Preemergence, 62 g ai/ha, scale 0 to 100, 0 is no effect, 100 is complete control
[22] = Preemergence, 125 g ai/ha, scale 0 to 100, 0 is no effect, 100 is complete control
[23] = Preemergence, 250 g ai/ha, scale 0 to 100 (0 no effect, 100 complete control)
[24] = postemergence, 62 g ai/ha, scale 0 to 100, 0 no effect, 100 complete control

Compound: COc1nn(C)c(=O)c(-c2c(C)ccc3ccccc23)c1OC(=O)OC(C)C [Compound 36]
- Plant response rating, Wheat [1]: 20
- Wheat plant response rating [1]: 30
- Plant response rating, Pigweed [2, 13]: 90
- Pigweed plant response rating [2, 14]: 90
- Pigweed plant response rating [2, 15]: 100
- Plant response rating, Pigweed [2, 16]: 100
- Plant response rating, Ragweed [3, 13]: 90
- Ragweed plant response rating [3, 14]: 90
- Ragweed plant response rating [3, 15]: 80
- Plant response rating, Ragweed [3, 16]: 90
- Plant response rating, Barnyardgrass [4, 13]: 50
- Barnyardgrass plant response rating [4, 14]: 80
- Barnyardgrass plant response rating [4, 15]: 0
- Plant response rating, Barnyardgrass [4, 16]: 30
- Plant response rating, Corn [5]: 20
- Corn plant response rating [5]: 40
- Plant response rating, Kochia [6, 13]: 90
- Kochia plant response rating [6, 14]: 100
- Kochia plant response rating [6, 15]: 10
- Plant response rating, Kochia [6, 16]: 80
- Crabgrass, Large plant response rating [7, 17]: 25
- Plant response rating, Crabgrass, Large [7, 18]: 25
- Plant response rating, Crabgrass, Large [7, 19]: 35
- Plant response rating, Crabgrass, Large [7, 20]: 70
- Plant response rating, Crabgrass, Large [7, 21]: 20
- Plant response rating, Crabgrass, Large [7, 22]: 20
- Crabgrass, Large plant response rating [7, 23]: 65
- Crabgrass, Large plant response rating [7, 24]: 30
- Oilseed Rape plant response rating [8, 17]: 40
- Plant response rating, Oilseed Rape [8, 18]: 50
- Plant response rating, Oilseed Rape [8, 19]: 90
- Plant response rating, Oilseed Rape [8, 20]: 50
- Plant response rating, Oilseed Rape [8, 21]: 60
- Plant response rating, Oilseed Rape [8, 22]: 60
- Oilseed Rape plant response rating [8, 23]: 95
- Oilseed Rape plant response rating [8, 24]: 40
- Oat, Wild plant response rating [9, 17]: 50
- Plant response rating, Oat, Wild [9, 18]: 65
- Plant response rating, Oat, Wild [9, 19]: 85
- Oat, Wild plant response rating [9, 24]: 60
- Kochia plant response rating [10, 17]: 50
- Plant response rating, Kochia [10, 18]: 55
- Plant response rating, Kochia [10, 19]: 90
- Kochia plant response rating [10, 24]: 55
- Plant response rating, Galium [11]: 100
- Galium plant response rating [11]: 100
- Plant response rating, Blackgrass [12]: 60
- Blackgrass plant response rating [12]: 80

Compound: CCOC(=O)Oc1c(C)nn(C)c(=O)c1-c1c(CC)ccc2ccccc12 [Compound 37]
- Plant response rating, Wheat [1]: 40
- Wheat plant response rating [1]: 80
- Plant response rating, Pigweed [2, 13]: 100
- Pigweed plant response rating [2, 14]: 100
- Pigweed plant response rating [2, 15]: 100
- Plant response rating, Pigweed [2, 16]: 100
- Plant response rating, Ragweed [3, 13]: 90
- Ragweed plant response rating [3, 14]: 90
- Ragweed plant response rating [3, 15]: 80
- Plant response rating, Ragweed [3, 16]: 90
- Plant response rating, Barnyardgrass [4, 13]: 60
- Barnyardgrass plant response rating [4, 14]: 90
- Barnyardgrass plant response rating [4, 15]: 30
- Plant response rating, Barnyardgrass [4, 16]: 90
- Plant response rating, Corn [5]: 0
- Corn plant response rating [5]: 40
- Plant response rating, Kochia [6, 13]: 60
- Kochia plant response rating [6, 14]: 90
- Kochia plant response rating [6, 15]: 30
- Plant response rating, Kochia [6, 16]: 80
- Crabgrass, Large plant response rating [7, 17]: 10
- Plant response rating, Crabgrass, Large [7, 18]: 25
- Plant response rating, Crabgrass, Large [7, 19]: 35
- Plant response rating, Crabgrass, Large [7, 20]: 5
- Plant response rating, Crabgrass, Large [7, 21]: 5
- Plant response rating, Crabgrass, Large [7, 22]: 20
- Crabgrass, Large plant response rating [7, 23]: 25
- Crabgrass, Large plant response rating [7, 24]: 20
- Oilseed Rape plant response rating [8, 17]: 40
- Plant response rating, Oilseed Rape [8, 18]: 40
- Plant response rating, Oilseed Rape [8, 19]: 50
- Plant response rating, Oilseed Rape [8, 20]: 0
- Plant response rating, Oilseed Rape [8, 21]: 40
- Plant response rating, Oilseed Rape [8, 22]: 60
- Oilseed Rape plant response rating [8, 23]: 90
- Oilseed Rape plant response rating [8, 24]: 20
- Oat, Wild plant response rating [9, 17]: 60
- Plant response rating, Oat, Wild [9, 18]: 90
- Plant response rating, Oat, Wild [9, 19]: 90
- Oat, Wild plant response rating [9, 24]: 80
- Kochia plant response rating [10, 17]: 0
- Plant response rating, Kochia [10, 18]: 5
- Plant response rating, Kochia [10, 19]: 80
- Kochia plant response rating [10, 24]: 0
- Plant response rating, Galium [11]: 100
- Galium plant response rating [11]: 100
- Plant response rating, Blackgrass [12]: 60
- Blackgrass plant response rating [12]: 100
